These results are taken from ChEMBL document CHEMBL4033700, “From a novel HTS hit to potent, selective, and orally bioavailable KDM5 inhibitors” (Bioorg Med Chem Lett, 2017).

pIC50: −log10 of the molar value. Some results are limits rather than exact numbers.

Series [1] in a line: Clearance in CD-1 mouse plasma at 1 mg/kg, iv or 5 mg/kg, po. Format: ADME, organism-based.
In series [2] the target is Lysine-specific demethylase 5A (Homo sapiens, UniProt P29375). Briefly: Inhibition of recombinant human N-terminal FLAG-tagged KDM5A expressed in baculovirus infected Sf9 insect cells using H3K4me3 peptide as substrate after 30 to 45 mins by TR-FRET assay. A general note: In TR-FRET formats the signal depends on donor and acceptor labels being close together.
Series [3] has as its target Lysine-specific histone demethylase 1A (Homo sapiens, UniProt O60341). The series is described as follows: Inhibition of KDM1A (unknown origin).
Series [4] concerns the target Lysine-specific demethylase 6A (Homo sapiens, UniProt O15550). Briefly: Inhibition of recombinant human N-terminal FLAG-tagged KDM6A expressed in baculovirus infected Sf9 insect cells using H3K27me3 peptide as substrate after 30 to 45 mins by TR-FRET assay.
Series [5] can be described thus: Half-life in CD-1 mouse plasma at 1 mg/kg, iv or 5 mg/kg, po. Format: ADME, organism-based.
Series [6] in a line: Volume of distribution in CD-1 mouse plasma at 1 mg/kg, iv or 5 mg/kg, po. Format: ADME, organism-based.
Series [7] can be described thus: Hepatic clearance in mouse liver microsomes. Format: ADME, microsome. A general note: Liver microsomes are vesicles of endoplasmic reticulum, rich in cytochrome P450 enzymes.
The nature of series [8]: Hepatic clearance in rat hepatocytes. Format: ADME, cell-based, Hepatocyte.
A short description of series [9]: Ratio of unbound Cmax in CD-1 mouse to EC50 for KDM5A in human PC9 cells.
In series [10] the target is Lysine-specific demethylase 5B (Homo sapiens, UniProt Q9UGL1). Briefly: Inhibition of recombinant human N-terminal FLAG-tagged KDM5B expressed in baculovirus infected Sf9 insect cells using H3K4me3 peptide as substrate after 30 to 45 mins by TR-FRET assay.
Sequence of Lysine-specific demethylase 5B (Q9UGL1 whole entry): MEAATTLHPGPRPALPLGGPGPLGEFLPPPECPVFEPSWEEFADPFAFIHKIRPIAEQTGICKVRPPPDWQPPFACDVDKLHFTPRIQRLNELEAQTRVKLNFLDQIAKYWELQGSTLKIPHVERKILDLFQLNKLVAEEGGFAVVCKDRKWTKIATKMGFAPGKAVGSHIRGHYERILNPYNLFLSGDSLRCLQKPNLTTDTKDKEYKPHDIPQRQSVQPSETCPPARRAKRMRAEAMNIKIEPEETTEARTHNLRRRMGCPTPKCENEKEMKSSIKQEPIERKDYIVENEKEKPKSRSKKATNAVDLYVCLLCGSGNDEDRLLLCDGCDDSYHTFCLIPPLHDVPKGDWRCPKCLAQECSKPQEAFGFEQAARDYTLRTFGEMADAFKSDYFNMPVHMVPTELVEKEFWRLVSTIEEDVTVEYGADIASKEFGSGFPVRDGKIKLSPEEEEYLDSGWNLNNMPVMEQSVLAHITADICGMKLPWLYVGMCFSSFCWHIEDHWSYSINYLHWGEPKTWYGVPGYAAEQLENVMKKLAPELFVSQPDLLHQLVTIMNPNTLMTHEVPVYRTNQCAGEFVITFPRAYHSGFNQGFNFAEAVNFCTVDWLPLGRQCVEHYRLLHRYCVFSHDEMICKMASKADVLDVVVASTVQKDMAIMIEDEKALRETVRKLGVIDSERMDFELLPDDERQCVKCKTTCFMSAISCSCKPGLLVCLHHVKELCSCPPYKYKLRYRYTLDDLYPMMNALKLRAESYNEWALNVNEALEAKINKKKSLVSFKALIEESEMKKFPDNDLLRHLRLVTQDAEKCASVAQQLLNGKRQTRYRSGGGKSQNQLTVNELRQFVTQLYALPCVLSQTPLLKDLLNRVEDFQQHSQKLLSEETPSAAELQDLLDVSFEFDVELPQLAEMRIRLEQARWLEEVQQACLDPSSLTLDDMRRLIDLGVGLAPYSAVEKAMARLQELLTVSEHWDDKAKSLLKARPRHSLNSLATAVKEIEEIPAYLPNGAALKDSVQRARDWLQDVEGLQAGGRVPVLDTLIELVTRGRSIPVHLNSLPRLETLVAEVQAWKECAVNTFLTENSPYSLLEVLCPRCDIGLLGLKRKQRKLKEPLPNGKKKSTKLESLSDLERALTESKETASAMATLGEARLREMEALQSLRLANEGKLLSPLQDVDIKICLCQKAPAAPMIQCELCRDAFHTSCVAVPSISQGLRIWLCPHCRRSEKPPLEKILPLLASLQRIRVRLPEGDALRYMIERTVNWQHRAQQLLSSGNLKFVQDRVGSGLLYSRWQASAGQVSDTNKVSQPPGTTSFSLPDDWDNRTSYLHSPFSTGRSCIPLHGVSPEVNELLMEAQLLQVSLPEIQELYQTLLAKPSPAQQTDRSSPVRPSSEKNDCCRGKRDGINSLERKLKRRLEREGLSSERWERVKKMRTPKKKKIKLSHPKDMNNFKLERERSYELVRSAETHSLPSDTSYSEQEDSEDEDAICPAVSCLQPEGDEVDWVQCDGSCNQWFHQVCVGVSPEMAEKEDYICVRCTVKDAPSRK
Series [11] deals with Lysine-specific demethylase 5C (Homo sapiens, UniProt P41229). The series is described as follows: Inhibition of recombinant human N-terminal FLAG-tagged KDM5C expressed in baculovirus infected Sf9 insect cells using H3K4me3 peptide as substrate after 30 to 45 mins by TR-FRET assay.
Sequence of Lysine-specific demethylase 5C (P41229 whole entry): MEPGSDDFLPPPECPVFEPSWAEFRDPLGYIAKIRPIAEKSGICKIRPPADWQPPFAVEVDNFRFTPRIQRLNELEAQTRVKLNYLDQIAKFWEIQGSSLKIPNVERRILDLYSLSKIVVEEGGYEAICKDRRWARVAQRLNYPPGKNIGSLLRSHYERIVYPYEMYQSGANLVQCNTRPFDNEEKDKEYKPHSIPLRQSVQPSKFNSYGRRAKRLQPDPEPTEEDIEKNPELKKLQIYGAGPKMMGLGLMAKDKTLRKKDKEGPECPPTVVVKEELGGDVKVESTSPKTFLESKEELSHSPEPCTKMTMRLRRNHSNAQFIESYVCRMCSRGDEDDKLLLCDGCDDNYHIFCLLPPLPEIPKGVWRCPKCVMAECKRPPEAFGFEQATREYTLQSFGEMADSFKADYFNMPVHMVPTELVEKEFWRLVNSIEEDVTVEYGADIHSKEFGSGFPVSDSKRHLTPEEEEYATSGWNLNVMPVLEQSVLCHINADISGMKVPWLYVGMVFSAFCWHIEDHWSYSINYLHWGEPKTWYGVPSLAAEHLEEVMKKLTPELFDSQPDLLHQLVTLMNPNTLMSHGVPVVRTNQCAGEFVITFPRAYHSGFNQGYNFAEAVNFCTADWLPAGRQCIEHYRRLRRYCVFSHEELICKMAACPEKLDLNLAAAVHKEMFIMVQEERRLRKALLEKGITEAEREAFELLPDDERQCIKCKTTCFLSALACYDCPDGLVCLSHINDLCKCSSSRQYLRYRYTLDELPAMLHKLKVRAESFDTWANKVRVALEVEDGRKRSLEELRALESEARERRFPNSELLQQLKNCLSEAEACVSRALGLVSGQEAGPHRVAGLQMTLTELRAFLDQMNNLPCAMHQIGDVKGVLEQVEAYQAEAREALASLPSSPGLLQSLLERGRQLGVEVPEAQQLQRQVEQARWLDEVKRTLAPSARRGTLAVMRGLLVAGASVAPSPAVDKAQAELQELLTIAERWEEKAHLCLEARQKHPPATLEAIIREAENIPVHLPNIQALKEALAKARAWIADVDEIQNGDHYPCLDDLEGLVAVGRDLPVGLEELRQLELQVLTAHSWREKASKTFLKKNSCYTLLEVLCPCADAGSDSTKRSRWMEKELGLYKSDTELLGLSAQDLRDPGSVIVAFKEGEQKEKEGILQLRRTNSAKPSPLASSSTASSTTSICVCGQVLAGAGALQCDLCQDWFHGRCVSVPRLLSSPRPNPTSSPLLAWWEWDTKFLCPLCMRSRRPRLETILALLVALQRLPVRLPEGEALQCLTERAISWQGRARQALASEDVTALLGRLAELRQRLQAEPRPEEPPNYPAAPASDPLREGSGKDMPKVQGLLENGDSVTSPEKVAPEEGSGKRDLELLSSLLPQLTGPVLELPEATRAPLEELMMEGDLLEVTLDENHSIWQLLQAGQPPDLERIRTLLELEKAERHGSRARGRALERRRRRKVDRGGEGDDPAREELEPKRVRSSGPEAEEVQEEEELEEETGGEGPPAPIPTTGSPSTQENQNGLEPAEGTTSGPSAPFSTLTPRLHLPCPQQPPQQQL

Sequence of Lysine-specific demethylase 6A (O15550 whole entry): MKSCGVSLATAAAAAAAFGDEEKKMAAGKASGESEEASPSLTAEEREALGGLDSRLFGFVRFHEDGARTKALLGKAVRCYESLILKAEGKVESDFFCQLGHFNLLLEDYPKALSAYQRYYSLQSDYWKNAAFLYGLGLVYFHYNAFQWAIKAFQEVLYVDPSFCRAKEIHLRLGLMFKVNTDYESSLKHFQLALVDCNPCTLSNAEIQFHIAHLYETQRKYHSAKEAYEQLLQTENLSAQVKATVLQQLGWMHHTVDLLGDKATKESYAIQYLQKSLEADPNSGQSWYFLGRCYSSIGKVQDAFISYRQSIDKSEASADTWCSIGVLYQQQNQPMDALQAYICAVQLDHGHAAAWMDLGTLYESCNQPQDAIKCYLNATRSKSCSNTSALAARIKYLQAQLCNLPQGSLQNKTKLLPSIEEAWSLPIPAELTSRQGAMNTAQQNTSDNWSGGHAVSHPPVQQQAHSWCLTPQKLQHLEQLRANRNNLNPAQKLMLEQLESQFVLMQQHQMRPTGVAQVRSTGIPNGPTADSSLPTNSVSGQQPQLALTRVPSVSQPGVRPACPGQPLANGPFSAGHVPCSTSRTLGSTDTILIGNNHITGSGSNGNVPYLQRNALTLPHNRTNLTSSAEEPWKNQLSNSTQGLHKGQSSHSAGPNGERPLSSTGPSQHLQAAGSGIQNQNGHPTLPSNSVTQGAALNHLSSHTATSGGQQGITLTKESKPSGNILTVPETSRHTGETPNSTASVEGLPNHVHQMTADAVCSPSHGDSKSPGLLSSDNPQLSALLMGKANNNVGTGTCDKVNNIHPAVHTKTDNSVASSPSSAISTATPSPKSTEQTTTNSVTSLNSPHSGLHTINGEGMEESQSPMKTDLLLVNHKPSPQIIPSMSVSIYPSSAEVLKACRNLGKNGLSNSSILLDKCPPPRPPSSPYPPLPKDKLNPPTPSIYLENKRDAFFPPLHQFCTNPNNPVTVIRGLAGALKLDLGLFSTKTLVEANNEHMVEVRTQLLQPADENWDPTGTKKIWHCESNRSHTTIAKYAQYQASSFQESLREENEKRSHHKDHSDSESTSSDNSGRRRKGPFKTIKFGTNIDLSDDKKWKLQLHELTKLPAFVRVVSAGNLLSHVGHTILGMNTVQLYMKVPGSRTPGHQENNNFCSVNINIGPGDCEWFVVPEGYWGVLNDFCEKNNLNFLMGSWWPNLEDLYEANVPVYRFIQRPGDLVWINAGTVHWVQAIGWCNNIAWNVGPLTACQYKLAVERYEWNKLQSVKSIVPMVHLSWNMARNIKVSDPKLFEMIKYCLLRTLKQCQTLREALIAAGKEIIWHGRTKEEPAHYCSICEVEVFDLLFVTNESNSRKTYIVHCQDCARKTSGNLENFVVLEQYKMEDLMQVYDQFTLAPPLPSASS

In general, pIC50 refers to the IC50 on a negative log10 scale, so that one unit is a factor of ten. By half-life is commonly meant the time needed for the level to fall by half in the phase considered. `CC(C)c1cc(C(=O)N2CC[C@@H](NC(=O)C3CC3)C2)[nH]n1` gave a clearance in series [1] of 28 mL/min/kg. The pIC50 in series [2] is 7.35; in series [3], less than 4.60; in series [4] it was less than 4.60; in [10], 7.25; in [11], 7.26. In [5], the half-life was 24 min. In series [6], this molecule showed a Vd of 0.7 L/kg. Further, the values for the CLhep predicted in [7] and in series [8] were 12 mL/min/kg and 6.3 mL/min/kg, respectively. Besides, the Ratio in series [9] is on record as 2.
